Reference: ChEMBL document CHEMBL2321701 (J Med Chem, 2013)
Active and inactive are the calls of the source. The calls are words filed in the database; no cut-off is given here.

Tested on: Plasmodium falciparum
Assay: Antimalarial activity against chloroquine-sensitive Plasmodium falciparum NF54 infected mouse assessed as reduction in parasitemia at 30 mg/kg, po measured on day 3 postinfection relative to control
Type: functional
Parameters: scale not given: the % may be the effect or the level left
Conditions: not given

| SMILES | Activity [%] |
| --- | --- |
| CC(C)(N)CNC(=O)CC1CCC2(CC1)COC1(OO2)C2CC3CC(C2)CC1C3 (configuration not stated) | 99.1 |
| C[C@H]1[C@H](OC(=O)CCC(=O)O)O[C@@H]2O[C@@]3(C)CC[C@H]4[C@H](C)CC[C@@H]1[C@@]24OO3 [ARTESUNATE] | 92 |
| CC(C)(N)CNC(=O)CC1CCC2(CC1)OOC1(OO2)C2CC3CC(C2)CC1C3 (configuration not stated) | 99.5 |
| CC(C)(N)CNC(=O)C[C@H]1CC[C@]2(CC1)OO[C@]1(O2)C2CC3CC(C2)CC1C3 [OZ277] | 99.9 |
| O[C@@H](c1cc(C(F)(F)F)nc2c(C(F)(F)F)cccc12)[C@H]1CCCCN1 (relative stereo) [(S,R)-MEFLOQUINE] | 99.6 |
| c1cc([C@H]2CC[C@]3(CC2)OO[C@]2(O3)C3CC4CC(C3)CC2C4)ccc1OCCN1CCOCC1 [ARTEFENOMEL] | >99.9 |

Tested on: Plasmodium berghei (mouse)
Assay: Antimalarial activity against chloroquine-sensitive Plasmodium berghei infected mouse assessed as cured animal at 30 mg/kg, po measured on day 30 postinfection
Conditions: not given

| SMILES | Activity |
| --- | --- |
| CCN(CC)CCCC(C)Nc1ccnc2cc(Cl)ccc12 (configuration not stated) [CHLOROQUINE] | inactive |
| CC(C)(N)CNC(=O)CC1CCC2(CC1)COC1(OO2)C2CC3CC(C2)CC1C3 (configuration not stated) | inactive |
| C[C@H]1[C@H](OC(=O)CCC(=O)O)O[C@@H]2O[C@@]3(C)CC[C@H]4[C@H](C)CC[C@@H]1[C@@]24OO3 [ARTESUNATE] | inactive |
| CC(C)(N)CNC(=O)CC1CCC2(CC1)OOC1(OO2)C2CC3CC(C2)CC1C3 (configuration not stated) | inactive |
| CC(C)(N)CNC(=O)C[C@H]1CC[C@]2(CC1)OO[C@]1(O2)C2CC3CC(C2)CC1C3 [OZ277] | inactive |
| O[C@@H](c1cc(C(F)(F)F)nc2c(C(F)(F)F)cccc12)[C@H]1CCCCN1 (relative stereo) [(S,R)-MEFLOQUINE] | inactive |
| c1cc([C@H]2CC[C@]3(CC2)OO[C@]2(O3)C3CC4CC(C3)CC2C4)ccc1OCCN1CCOCC1 [ARTEFENOMEL] | Active |

Tested on: Plasmodium falciparum
Assay: animal or person
Conditions: NF54

| SMILES | IC50 [nM] |
| --- | --- |
| CC(C)(N)CNC(=O)C[C@H]1CC[C@@]2(CC1)C[C@@]1(OO2)C2CC3CC(C2)CC1C3 | 440 |
| c1cc([C@H]2CC[C@@]3(CC2)C[C@@]2(OO3)C3CC4CC(C3)CC2C4)ccc1OCCN1CCOCC1 | 1200 |
| CC(C)(N)CNC(=O)CC1CCC2(CC1)COC1(OO2)C2CC3CC(C2)CC1C3 (configuration not stated) | 29 |
| CC(C)(N)CNC(=O)CC1CCC2(CC1)OOC1(OO2)C2CC3CC(C2)CC1C3 (configuration not stated) | 1.7 |
| O[C@@H](c1cc(C(F)(F)F)nc2c(C(F)(F)F)cccc12)[C@H]1CCCCN1 (relative stereo) [(S,R)-MEFLOQUINE] | 14 |
| c1cc([C@H]2CC[C@]3(CC2)OO[C@]2(O3)C3CC4CC(C3)CC2C4)ccc1OCCN1CCOCC1 [ARTEFENOMEL] | 3.4 |

Tested on: not listed separately
Assay: Dissociation constant, pKa of the compound
Type: physicochemical
Conditions: not given

| SMILES | pKa |
| --- | --- |
| CC(C)(N)CNC(=O)C[C@H]1CC[C@@]2(CC1)C[C@@]1(OO2)C2CC3CC(C2)CC1C3 | 9.05 |
| c1cc([C@H]2CC[C@@]3(CC2)C[C@@]2(OO3)C3CC4CC(C3)CC2C4)ccc1OCCN1CCOCC1 | 6.82 |
| CC(C)(N)CNC(=O)CC1CCC2(CC1)COC1(OO2)C2CC3CC(C2)CC1C3 (configuration not stated) | 9.05 |
| CC(C)(N)CNC(=O)CC1CCC2(CC1)OOC1(OO2)C2CC3CC(C2)CC1C3 (configuration not stated) | 9.05 |
| CC(C)(N)CNC(=O)C[C@H]1CC[C@]2(CC1)OO[C@]1(O2)C2CC3CC(C2)CC1C3 [OZ277] | 9.05 |
| c1cc([C@H]2CC[C@]3(CC2)OO[C@]2(O3)C3CC4CC(C3)CC2C4)ccc1OCCN1CCOCC1 [ARTEFENOMEL] | 6.81 |

Tested on: not listed separately
Assay: Half life in mouse whole blood
Type: ADME, tissue-based
Conditions: not given

| SMILES | half-life [min] |
| --- | --- |
| CC(C)(N)CNC(=O)C[C@H]1CC[C@@]2(CC1)C[C@@]1(OO2)C2CC3CC(C2)CC1C3 | 60 |
| CC(C)(N)CNC(=O)CC1CCC2(CC1)COC1(OO2)C2CC3CC(C2)CC1C3 (configuration not stated) | 138 |
| CC(C)(N)CNC(=O)CC1CCC2(CC1)OOC1(OO2)C2CC3CC(C2)CC1C3 (configuration not stated) | 54.6 |
| CC(C)(N)CNC(=O)C[C@H]1CC[C@]2(CC1)OO[C@]1(O2)C2CC3CC(C2)CC1C3 [OZ277] | 55.8 |

Tested on: not listed separately
Assay: Intrinsic clearance in mouse liver microsomes at 1 uM after 60 mins by LC-MS analysis
Type: ADME, Microsome
Conditions: read-out: CLH

| SMILES | microsomal CLint at 1 µM [µL/min/mg] |
| --- | --- |
| CC(C)(N)CNC(=O)C[C@H]1CC[C@@]2(CC1)C[C@@]1(OO2)C2CC3CC(C2)CC1C3 | 12 |
| c1cc([C@H]2CC[C@@]3(CC2)C[C@@]2(OO3)C3CC4CC(C3)CC2C4)ccc1OCCN1CCOCC1 | 28 |
| CC(C)(N)CNC(=O)CC1CCC2(CC1)COC1(OO2)C2CC3CC(C2)CC1C3 (configuration not stated) | < 7 |
| CC(C)(N)CNC(=O)CC1CCC2(CC1)OOC1(OO2)C2CC3CC(C2)CC1C3 (configuration not stated) | 14 |
| CC(C)(N)CNC(=O)C[C@H]1CC[C@]2(CC1)OO[C@]1(O2)C2CC3CC(C2)CC1C3 [OZ277] | 17 |

Tested on: not listed separately
Assay: Lipophilicity, log D of the compound at pH 7.4
Type: physicochemical
Conditions: buffer

| SMILES | logD |
| --- | --- |
| CC(C)(N)CNC(=O)C[C@H]1CC[C@@]2(CC1)C[C@@]1(OO2)C2CC3CC(C2)CC1C3 | 1.83 |
| c1cc([C@H]2CC[C@@]3(CC2)C[C@@]2(OO3)C3CC4CC(C3)CC2C4)ccc1OCCN1CCOCC1 | 5.56 |
| CC(C)(N)CNC(=O)CC1CCC2(CC1)COC1(OO2)C2CC3CC(C2)CC1C3 (configuration not stated) | 1.05 |
| CC(C)(N)CNC(=O)CC1CCC2(CC1)OOC1(OO2)C2CC3CC(C2)CC1C3 (configuration not stated) | 0.87 |
| CC(C)(N)CNC(=O)C[C@H]1CC[C@]2(CC1)OO[C@]1(O2)C2CC3CC(C2)CC1C3 [OZ277] | 0.69 |
| c1cc([C@H]2CC[C@]3(CC2)OO[C@]2(O3)C3CC4CC(C3)CC2C4)ccc1OCCN1CCOCC1 [ARTEFENOMEL] | 4.53 |

Tested on: not listed separately
Assay: AUC (0 to 24 hrs) in mouse at 30 mg/kg, po by LC-MS analysis
Type: ADME, organism-based
Parameters: time < 24 hr, dose 30 mg/kg, route oral
Conditions: plasma

| SMILES | AUC(0-t) at 24 h [µM·h] |
| --- | --- |
| CC(C)(N)CNC(=O)CC1CCC2(CC1)COC1(OO2)C2CC3CC(C2)CC1C3 (configuration not stated) | 22.4 |
| CC(C)(N)CNC(=O)CC1CCC2(CC1)OOC1(OO2)C2CC3CC(C2)CC1C3 (configuration not stated) | 13.5 |
| CC(C)(N)CNC(=O)C[C@H]1CC[C@]2(CC1)OO[C@]1(O2)C2CC3CC(C2)CC1C3 [OZ277] | 5.13 |
| c1cc([C@H]2CC[C@]3(CC2)OO[C@]2(O3)C3CC4CC(C3)CC2C4)ccc1OCCN1CCOCC1 [ARTEFENOMEL] | 52.7 |

Tested on: not listed separately
Assay: Plasma concentration in Swiss outbred mouse at 30 mg/kg, po at 24 hrs by LC-MS analysis
Type: ADME, organism-based
Parameters: dose 30 mg/kg, route oral
Conditions: not given

| SMILES | concentration at 24 h [ng/mL] |
| --- | --- |
| CC(C)(N)CNC(=O)CC1CCC2(CC1)COC1(OO2)C2CC3CC(C2)CC1C3 (configuration not stated) | > 10 |
| CC(C)(N)CNC(=O)CC1CCC2(CC1)OOC1(OO2)C2CC3CC(C2)CC1C3 (configuration not stated) | < 1 |
| CC(C)(N)CNC(=O)C[C@H]1CC[C@]2(CC1)OO[C@]1(O2)C2CC3CC(C2)CC1C3 [OZ277] | < 1 |
| c1cc([C@H]2CC[C@]3(CC2)OO[C@]2(O3)C3CC4CC(C3)CC2C4)ccc1OCCN1CCOCC1 [ARTEFENOMEL] | > 200 |

Tested on: Plasmodium berghei (mouse)
Assay: Antimalarial activity against chloroquine-sensitive Plasmodium berghei infected mouse assessed as survival at 30 mg/kg, po
Conditions: not given

| SMILES | Survival [days] |
| --- | --- |
| CCN(CC)CCCC(C)Nc1ccnc2cc(Cl)ccc12 (configuration not stated) [CHLOROQUINE] | 10 |
| CC(C)(N)CNC(=O)CC1CCC2(CC1)COC1(OO2)C2CC3CC(C2)CC1C3 (configuration not stated) | 15 |
| C[C@H]1[C@H](OC(=O)CCC(=O)O)O[C@@H]2O[C@@]3(C)CC[C@H]4[C@H](C)CC[C@@H]1[C@@]24OO3 [ARTESUNATE] | 9 |
| CC(C)(N)CNC(=O)CC1CCC2(CC1)OOC1(OO2)C2CC3CC(C2)CC1C3 (configuration not stated) | 9 |
| CC(C)(N)CNC(=O)C[C@H]1CC[C@]2(CC1)OO[C@]1(O2)C2CC3CC(C2)CC1C3 [OZ277] | 11 |
| O[C@@H](c1cc(C(F)(F)F)nc2c(C(F)(F)F)cccc12)[C@H]1CCCCN1 (relative stereo) [(S,R)-MEFLOQUINE] | 22 |
| c1cc([C@H]2CC[C@]3(CC2)OO[C@]2(O3)C3CC4CC(C3)CC2C4)ccc1OCCN1CCOCC1 [ARTEFENOMEL] | >30 |

Tested on: not listed separately
Assay: Partition coefficient, log P of the compound
Type: physicochemical
Conditions: octanol/water

| SMILES | logP |
| --- | --- |
| CC(C)(N)CNC(=O)C[C@H]1CC[C@@]2(CC1)C[C@@]1(OO2)C2CC3CC(C2)CC1C3 | 3.21 |
| c1cc([C@H]2CC[C@@]3(CC2)C[C@@]2(OO3)C3CC4CC(C3)CC2C4)ccc1OCCN1CCOCC1 | 5.66 |
| CC(C)(N)CNC(=O)CC1CCC2(CC1)COC1(OO2)C2CC3CC(C2)CC1C3 (configuration not stated) | 2.44 |
| CC(C)(N)CNC(=O)CC1CCC2(CC1)OOC1(OO2)C2CC3CC(C2)CC1C3 (configuration not stated) | 2.26 |
| CC(C)(N)CNC(=O)C[C@H]1CC[C@]2(CC1)OO[C@]1(O2)C2CC3CC(C2)CC1C3 [OZ277] | 2.07 |
| c1cc([C@H]2CC[C@]3(CC2)OO[C@]2(O3)C3CC4CC(C3)CC2C4)ccc1OCCN1CCOCC1 [ARTEFENOMEL] | 4.63 |

Tested on: Plasmodium falciparum
Assay: microbe, parasite or virus in culture
Conditions: K1

| SMILES | IC50 [nM] |
| --- | --- |
| CC(C)(N)CNC(=O)C[C@H]1CC[C@@]2(CC1)C[C@@]1(OO2)C2CC3CC(C2)CC1C3 | 170 |
| c1cc([C@H]2CC[C@@]3(CC2)C[C@@]2(OO3)C3CC4CC(C3)CC2C4)ccc1OCCN1CCOCC1 | 370 |
| CC(C)(N)CNC(=O)CC1CCC2(CC1)COC1(OO2)C2CC3CC(C2)CC1C3 (configuration not stated) | 19 |
| CC(C)(N)CNC(=O)CC1CCC2(CC1)OOC1(OO2)C2CC3CC(C2)CC1C3 (configuration not stated) | 0.9 |
| O[C@@H](c1cc(C(F)(F)F)nc2c(C(F)(F)F)cccc12)[C@H]1CCCCN1 (relative stereo) [(S,R)-MEFLOQUINE] | 7.2 |
| c1cc([C@H]2CC[C@]3(CC2)OO[C@]2(O3)C3CC4CC(C3)CC2C4)ccc1OCCN1CCOCC1 [ARTEFENOMEL] | 2.8 |
